Experimental data reported in ChEMBL document CHEMBL1145322, “Synthesis and anthelmintic activity of substituted (R)-phenyllactic acid containing cyclohexadepsipeptides” (Bioorg Med Chem Lett, 2006).

Columns and labels:
Haemonchus contortus [1] = assay: Anthelmintic activity against Haemonchus contortus in infected sheep assessed as reduction in faecal egg at 0.10 mg/kg, po; assay type: functional, Feces; set-up: scale not given: the % may be the effect or the level left; conditions: dose 0.1 mg/kg
[2] = Partition coefficient, log P of the compound; assay type: physicochemical; conditions: octanol/water
Haemonchus contortus [3] = assay: Anthelmintic activity against Haemonchus contortus in infected sheep assessed as reduction in faecal egg at 0.05 mg/kg, po; assay type: functional, Feces; set-up: scale not given: the % may be the effect or the level left
Haemonchus contortus [4] = assay: Anthelmintic activity against Haemonchus contortus in infected sheep assessed as reduction in faecal egg at 0.25 mg/kg, po; assay type: functional, Feces; set-up: scale not given: the % may be the effect or the level left

| SMILES | Activity (Haemonchus contortus [1]) | logP [2] | Activity (Haemonchus contortus [3]) | Activity (Haemonchus contortus [4]) |
| --- | --- | --- | --- | --- |
| CC[C@@H](C)[C@H]1C(=O)O[C@H](Cc2ccc([N+](=O)[O-])cc2)C(=O)N(C)[C@@H]([C@H](C)CC)C(=O)O[C@H](C)C(=O)N(C)[C@@H](C)C(=O)O[C@H](C)C(=O)N1C | 50% |  |  |  |
| CC[C@@H](C)[C@H]1C(=O)O[C@H](Cc2ccccc2N)C(=O)N(C)[C@@H]([C@H](C)CC)C(=O)O[C@H](C)C(=O)N(C)[C@@H](C)C(=O)O[C@H](C)C(=O)N1C |  | 3.18 | >=95% |  |
| CC[C@@H](C)[C@H]1C(=O)O[C@H](Cc2ccc(N3CCOCC3)cc2)C(=O)N(C)[C@@H]([C@H](C)CC)C(=O)O[C@H](C)C(=O)N(C)[C@@H](C)C(=O)O[C@H](C)C(=O)N1C | >=95% | 3.58 |  |  |
| CCC(C)[C@H]1C(=O)O[C@H](C)C(=O)N(C)[C@@H](C)C(=O)O[C@H](C)C(=O)N(C)[C@@H](C(C)CC)C(=O)O[C@H](C)C(=O)N1C (stereo partly drawn) |  | 3.26 | >=95% |  |
| CC[C@@H](C)[C@H]1C(=O)O[C@H](Cc2ccccc2)C(=O)N(C)[C@@H]([C@H](C)CC)C(=O)O[C@H](C)C(=O)N(C)[C@@H](C)C(=O)O[C@H](C)C(=O)N1C |  | 4.23 |  | <=50% |
| CC[C@@H](C)[C@H]1C(=O)O[C@H](Cc2cccc(N)c2)C(=O)N(C)[C@@H]([C@H](C)CC)C(=O)O[C@H](C)C(=O)N(C)[C@@H](C)C(=O)O[C@H](C)C(=O)N1C |  | 2.35 | >=95% |  |
| CC[C@@H](C)[C@H]1C(=O)O[C@H](Cc2ccc(N)cc2)C(=O)N(C)[C@@H]([C@H](C)CC)C(=O)O[C@H](C)C(=O)N(C)[C@@H](C)C(=O)O[C@H](C)C(=O)N1C | 50% | 2.08 |  |  |
